Experimental data from patent publication US20060154892A1, “Procedure to block the replication of reverse transcriptase dependent viruses by the use of inhibitors of deoxynucleotides synthesis” (priority 1993, published 2006).
Where two headings read alike, the source gives them in different places.

Assays:
HIV-1 IIIB [1] = assay: expected p24 expression in HIV-1 IIIB infected PHA-stimulated PBL with hydroxyurea and/or nucleoside analogs (Example 10); type: cell-based
Experimental: PBL isolated from healthy donors are stimulated with PHA and IL-2 for 48 hours using standard protocols. At the same time, the cells are pre-treated with hydroxyurea alone or in combination with either ddI or fluorinated derivatives of chain-terminating nucleosides.

PBL [2] = conditions: doses corresponding to plasma concentrations in treated AIDS patients; cited from earlier work
HIV-1 [3] = conditions: for effect on HIV-1 replication at the lowest levels: in some cases, only when used individually, FIG. 3
Experimental: PBL from healthy donors were infected for 2 hour at 37° C. with HIV-1 [HTLV-IIIB] (m.o.i.=1) after 2 days stimulation with PHA and Interleukin-2 (IL-2). […] Every 3-4 days, supernatant was harvested for p24 analysis, cells were counted and fresh supernatant and drugs were added. Samples were analyzed for (a) p24 production in the supernatant, (b) count of viable cells, and (c) ratios between the values expressed in (a) and (b).
PBL were isolated and stimulated for 2 days with PHA and IL-2. […] The extent of HIV-1 infection was analyzed as described in Example 5. Samples were tested for (a) p24 production in the supernatant, (b) viable cell count.

HIV-1 [4] = system: HIV-1
Text: In the latter procedure, we measured p24 production during the course of an in vitro infection to assess the inhibition of HIV-1 replication in activated PBL.

HIV-1 RT [5] = molecular target: T1, HIV-1 RT (Human immunodeficiency virus type 1 group M subtype B, UniProt P04585); assay: Km of HIV-1 RT for dNTP, 600-base globin mRNA template; type: biochemical; conditions: 600-base globin mRNA as template
HIV-1 strain Ba-L = assay: p24 production in primary human macrophages infected with HIV-1 Ba-L; type: cell-based; conditions: for inhibition at 1000 µM: Human immunodeficiency virus 1, BAL, Macrophage
Experimental: Macrophages were obtained by cell adhesion after purification of PBL from healthy donors. After 14 days treatment with granulocyte-macrophage-colony-stimulating factor, cells were infected overnight with the HIV-1 strain Ba-L (Gartner et al., Science 233:215 (1986)). […] Supernatants were harvested ever 4-5 days for p24 analysis and fresh supernatant and drugs were added.
Percentages of HIV-1 inhibition were calculated based on p24 production compared to the untreated control. Drug treatment of macrophages was suspended after 14 days.

PBL [6] = assay: count of viable cells in HIV-1 infected activated PBL culture; type: cell-based, human; conditions: for Viable cells: PBMC, 1 mM Hydroxyurea
HIV-1 IIIB [7] = conditions: for RT Activity: 1 mM hydroxyurea
[8] = system: dNTP pools in PHA stimulated PBL; assay: dNTP pools in HIV-1 infected PHA-stimulated PBL treated with hydroxyurea (enzyme assay); type: cell-based, human; conditions: 1 mM hydroxyurea
Experimental: PBLs were cultured in the presence or absence of phytohemagglutinin A (PHA) at 10 μg/ml for 48 hours. Intracellular dNTP were extracted with 60% methanol and were examined by an enzyme assay using synthetic oligonucleotides (P. A. Sherman and A. J. Fyfe, 1989 Anal. Biochem. 180:222). Data represent the mean value of three experiments. […] The cellular volume of PBL was measured using a Coulter counter analizer and found to be approximately 0.25 μl/10^6 cells for quiescent PBL and 0.38 μl/10^6 cells for stimulated PBL, respectively.
Cell aliquots were harvested 24, 48 and 72 hours after infection and analyzed for the rate of dNTP synthesis inhibition (Sherman and Fyfe, supra) measured as the percentage of dNTP levels compared to the control cells.

HIV-1 [9] = assay: administration of hydroxyurea to HIV-1 seropositive volunteers, CD4+ T-cell count (Example 9); type: in vivo, human; conditions: 20-40 mg per kg per day, after one month of drug treatment
Experimental: One or more HIV-1 seropositive volunteers are first identified. Blood samples drawn from the volunteers are assayed for CD4^+T-cells using any suitable quantitation means. Such quantitation means include, but are not limited to, the flow cytometer. Over a period of from several weeks to months, the number of CD4^+T-cells is observed to decrease steadily as an indicator of disease progression.
The nucleoside analogs can be any of ddI, ddC or AZT, or combinations thereof.
When hydroxyurea is used in conjunction with a nucleoside analog, the dosage of the analog is determined according to convention in the medical and pharmaceutical arts.
After one month of drug treatment blood samples are again drawn and assayed for CD4^+T-cells.

[10] = cited from earlier work
HIV-1 [HTLV-IIIB] = assay: p24 production in activated PBL infected with HIV-1 [HTLV-IIIB], drugs added after infection; type: cell-based; conditions: for inhibition at 1000 µM: Human immunodeficiency virus 1, IIIB, PBMC
[11] = system: primary human macrophages; conditions: for Viable cells: Macrophages
HIV-1 RT [12] = molecular target: T1, HIV-1 RT; assay: in vitro activity of recombinant HIV-1 RT (primer extension assay); type: biochemical; conditions: 200 mM
Experimental: We also assessed the in vitro activity of recombinant HIV-1 RT at dNTP concentrations that were equivalent to those found in quiescent and stimulated PBL. DNA was synthesized using a globin mRNA template and an oligo dT16 primer (a primer extension assay). The HIV-1 RT reaction mixture contained 50 mM Tris-HCl (pH 8.0), 6 mM MgCl2, 76 mM KCl, 0.5 mM DTT, 80 nM globin mRNA primed with oligo dT16 in 1:5 ratio, and dNTP at (a) the concentrations equivalent to quiescent cells and (b) the concentrations equivalent to stimulated cells as described in Table 1. Recombinant HIV-1 RT (obtained from American Biotechnologies) was used at 5 U/ml.

[13] = nucleoside analog 20 μM, day 12

Structure (SMILES): O=c1[nH]cnc2c1ncn2[C@@H]1O[C@H](CO)C[C@@H]1F [2′-F-dd-ara-I]
- p24 Expression after Infection (HIV-1 IIIB [1]; nucleoside analog 20 μM, day 4): Low
- p24 Expression after Infection (HIV-1 IIIB [1]; nucleoside analog 20 μM, day 8): Medium
- p24 Expression after Infection (HIV-1 IIIB [1]; [13]): Medium

Structure (SMILES): O=c1[nH]cnc2c1ncn2[C@H]1CC[C@@H](CO)O1 [ddI, didanosine]
- cytotoxicity (PBL [2]): low
- effect on HIV-1 replication at the lowest levels (HIV-1 [3]): stimulated HIV-1 replication
- p24 after infection (HIV-1 [4]; ddI 0.2 μM, day 4): 4 ng/mL
- p24 after infection (HIV-1 [4]; ddI 0.2 μM, day 8): 116 ng/mL
- p24 after infection (HIV-1 [4]; ddI 0.2 μM, day 12): 197 ng/mL
- p24 after infection (HIV-1 [4]; ddI 1 μM, day 4): 3 ng/mL
- p24 after infection (HIV-1 [4]; ddI 1 μM, day 8): 90 ng/mL
- p24 after infection (HIV-1 [4]; ddI 1 μM, day 12): 196 ng/mL
- p24 after infection (HIV-1 [4]; ddI 5 μM, day 4): 1 ng/mL
- p24 after infection (HIV-1 [4]; ddI 5 μM, day 8): 58 ng/mL
- p24 after infection (HIV-1 [4]; ddI 5 μM, day 12): 125 ng/mL
- p24 after infection (HIV-1 [4]; ddI 20 μM, day 4): 1 ng/mL
- p24 after infection (HIV-1 [4]; ddI 20 μM, day 8): 25 ng/mL
- p24 after infection (HIV-1 [4]; ddI 20 μM, day 12): 51 ng/mL
- p24 Expression after Infection (HIV-1 IIIB [1]; nucleoside analog 20 μM, day 4): Low
- p24 Expression after Infection (HIV-1 IIIB [1]; nucleoside analog 20 μM, day 8): Medium
- p24 Expression after Infection (HIV-1 IIIB [1]; [13]): Medium

Structure (SMILES): Nc1nc2c(ncn2[C@H]2C[C@H](O)[C@@H](COP(=O)(O)OP(=O)(O)OP(=O)(O)O)O2)c(=O)[nH]1 [dGTP]
- Km (HIV-1 RT [5]): 3.9 µM

Structure (SMILES): Cc1cn([C@H]2C[C@H](O)[C@@H](COP(=O)(O)OP(=O)(O)OP(=O)(O)O)O2)c(=O)[nH]c1=O [dTTP]
- Km (HIV-1 RT [5]): 4 µM

Structure (SMILES): Nc1nc2c(ncn2[C@@H]2O[C@H](CO)C[C@@H]2F)c(=O)[nH]1 [2′-F-dd-ara-G]
- p24 Expression after Infection (HIV-1 IIIB [1]; nucleoside analog 20 μM, day 4): Low
- p24 Expression after Infection (HIV-1 IIIB [1]; nucleoside analog 20 μM, day 8): Medium
- p24 Expression after Infection (HIV-1 IIIB [1]; [13]): Medium

Structure (SMILES): Nc1ncnc2c1ncn2[C@@H]1O[C@H](CO)C[C@@H]1F [2′-F-dd-ara-A]
- p24 Expression after Infection (HIV-1 IIIB [1]; nucleoside analog 20 μM, day 4): Low
- p24 Expression after Infection (HIV-1 IIIB [1]; nucleoside analog 20 μM, day 8): Medium
- p24 Expression after Infection (HIV-1 IIIB [1]; [13]): Medium

Structure (SMILES): Nc1ccn([C@H]2C[C@H](O)[C@@H](COP(=O)(O)OP(=O)(O)OP(=O)(O)O)O2)c(=O)n1 [dCTP]
- Km (HIV-1 RT [5]): 3.8 µM

Structure (SMILES): NC(=O)NO [hydroxyurea]
- inhibition at 1000 µM (HIV-1 strain Ba-L; 96 h): 100%
- inhibition at 1000 µM (HIV-1 strain Ba-L; 168 h): 100%
- inhibition at 1000 µM (HIV-1 strain Ba-L; 240 h): 100%
- inhibition at 1000 µM (HIV-1 strain Ba-L; 336 h): 100%
- HIV-1 replication (HIV-1 strain Ba-L; continuous treatment with 1 mM hydroxyurea, macrophages): completely blocked HIV-1 replication
- block of HIV-1 replication (HIV-1 strain Ba-L; hydroxyurea as low as 0.05 mM, macrophages): > 99.9%
- HIV-1 replication after discontinuing the drug treatment (HIV-1 strain Ba-L; infected macrophages, several weeks after discontinuing, in some experiments): absence of HIV-1 replication
- dose-dependent inhibition of HIV-1 production in macrophages compared with PBL (HIV-1 strain Ba-L; same donor for PBL and macrophages): consistently more potent than with primary PBL
- cytotoxic effects (PBL [6]; 0.1 mM hydroxyurea, continuous exposure, FIG. 1b): some cytotoxic effects
- toxicity (PBL [6]; 1 mM hydroxyurea, activated PBL): toxic effects at these concentrations were observed early
- Viable cells (PBL [6]; day 4): 500 thousands/ml
- Viable cells (PBL [6]; day 7): 185 thousands/ml
- Viable cells (PBL [6]; day 10): 87 thousands/ml
- Viable cells (PBL [6]; day 14): 36 thousands/ml
- cytostatic and cytotoxic effects (PBL [6]; decreased drug concentration, FIG. 1b): virtually disappeared
- RT Activity (HIV-1 IIIB [7]; day 2): 0.892 cpm/ml × 1000
- RT Activity (HIV-1 IIIB [7]; day 5): 0.589 cpm/ml × 1000
- RT Activity (HIV-1 IIIB [7]; day 9): 0.434 cpm/ml × 1000
- viral expression of RT (HIV-1 IIIB [7]; pre-infection treatment with 1 mM hydroxyurea): significantly reduced
- dNTP pools in stimulated PBL [8]: substantially depleted
- CD4+ T-cell population (HIV-1 [9]): stabilized or increased
- blood concentration during standard clinical protocols ([10]; humans): ~1000 µM
- absorption ([10]; oral ingestion): readily absorbed after oral ingestion
- inhibition at 1000 µM (HIV-1 [HTLV-IIIB]; 96 h): 100%
- inhibition at 1000 µM (HIV-1 [HTLV-IIIB]; 168 h): 100%
- inhibition at 1000 µM (HIV-1 [HTLV-IIIB]; 240 h): 100%
- inhibition at 1000 µM (HIV-1 [HTLV-IIIB]; 336 h): 100%
- HIV-1 replication (HIV-1 [HTLV-IIIB]; continuous treatment with 1 mM hydroxyurea, activated PBL): completely blocked HIV-1 replication
- antiviral effect, p24 normalized to number of viable cells (HIV-1 [HTLV-IIIB]; low concentrations, FIG. 1c): not mediated by cytotoxicity
- HIV-1 replication (p24 in supernatant) (HIV-1 [HTLV-IIIB]; used alone at low concentrations, FIG. 1a): inhibited in a dose-dependent manner
- effect on HIV-1 replication at the lowest levels (HIV-1 [3]): stimulated HIV-1 replication
- HIV-1 replication (HIV-1 [3]; patient PBL, FIG. 3a): inhibited HIV-1 replication in a dose-dependent manner
- cytotoxic effects [11]: no cytotoxic effects were observed
- Viable cells ([11]; 1 mM Hydroxyurea, day 4): 300 thousands/cm^2
- Viable cells ([11]; 1 mM Hydroxyurea, day 7): 280 thousands/cm^2
- Viable cells ([11]; 1 mM Hydroxyurea, day 10): 270 thousands/cm^2
- Viable cells ([11]; 1 mM Hydroxyurea, day 14): 270 thousands/cm^2
- Viable cells ([11]; day 21, drug suspension after 14 days): 260 thousands/cm^2
- Viable cells ([11]; day 28, drug suspension after 14 days): 240 thousands/cm^2
- Viable cells ([11]; day 35, drug suspension after 14 days): 190 thousands/cm^2
- p24 after infection (HIV-1 [4]; HU 10 μM, day 4): 4 ng/mL
- p24 after infection (HIV-1 [4]; HU 10 μM, day 8): 100 ng/mL
- p24 after infection (HIV-1 [4]; HU 10 μM, day 12): 204 ng/mL
- p24 after infection (HIV-1 [4]; HU 50 μM, day 4): 3 ng/mL
- p24 after infection (HIV-1 [4]; HU 50 μM, day 8): 113 ng/mL
- p24 after infection (HIV-1 [4]; HU 50 μM, day 12): 148 ng/mL
- p24 after infection (HIV-1 [4]; HU 100 μM, day 4): 2 ng/mL
- p24 after infection (HIV-1 [4]; HU 100 μM, day 8): 111 ng/mL
- p24 after infection (HIV-1 [4]; HU 100 μM, day 12): 116 ng/mL
- direct inhibition of RT enzymatic activity (HIV-1 RT [12]): did not directly inhibit RT enzymatic activity
- p24 Expression after Infection (HIV-1 IIIB [1]; HU 50 μM, day 4): Low
- p24 Expression after Infection (HIV-1 IIIB [1]; HU 50 μM, day 8): Medium
- p24 Expression after Infection (HIV-1 IIIB [1]; HU 50 μM, day 12): High

Structure (SMILES): Nc1ncnc2c1ncn2[C@H]1C[C@H](O)[C@@H](COP(=O)(O)OP(=O)(O)OP(=O)(O)O)O1 [dATP]
- Km (HIV-1 RT [5]): 2.6 µM
